US20070077607A1, “Novel screening method” (priority 2003, published 2007)
Where no end group is shown, it is not given here.

Tests used:
Swiss 3T3 fibroblasts = test: Cell adhesion assay (cell attachment and cell spreading), Swiss 3T3 fibroblasts; assay type: cell-based, mouse; conditions: 100 μg/ml RGD peptide
Procedure: To evaluate cell attachment and cell spreading exponentially growing cells were detached from substratum by trypsinisation (0.25% (v/v) trypsin in 5 mM EDTA), collected into medium containing a ˜7% (V/V) final concentration of FCS, washed twice with medium without serum and then plated (2×10^4cells/well) onto FN-coated 96-well plates with and without further immobilisation of tTG. After a maximum of 20-minute incubation (to minimise the effect of any endogenous secreted proteins) at 37° C. in a 5% CO2 atmosphere, cells were fixed in 3.7% (w/v) paraformaldehyde in PBS pH 7.4, permeabilised in 0.1% (v/v) Triton X-100 and stained with May Grunwald and Giemsa stain (Jones et al 1997, Verderio et al. 2000). In some cases cells were pre-treated for 15 hours with 1 mM cycloheximide before plating to rule out any effects of endogenous secreted adhesion molecules. Digital images of three non-overlapping fields covering the central portion of each well was captured using a video digital camera (Olympus DP10) and examined using the Image Analysis programme Scion Image (National Institute of Health, USA). […] The number of cell particles in each field was measured by thresholding and particle analysis setting a minimum particle size of 50 pixels. Spread cells were analysed and quantified by “density slicing” and particle analysis. […]

[1] = system: tTG-null mouse dermal fibroblasts (MDF-TG−/−); test: Anoikis quantification by TUNEL (flow cytometry and in situ microscopy); assay type: cell-based; conditions: RGD peptide, ~15-hour, flow cytometry
Procedure: (§1) For fluorochrome labelling of DNA strand breaks, 6×10^5 cells were seeded in duplicate in 9.6 cm^2-wells pre-coated with FN or tTG-FN in the presence or absence of RGD peptide. After 15-hour incubation at 37° C. in a 5% CO2 atmosphere, all cells (adhered and non-adhered) were collected, washed twice in PBS pH 7.4, resuspended at the final concentration of 1.2×10^7 cells/ml and fixed in suspension by addition of one volume of 4% (w/v) PFM in PBS, pH 7.4 for 1 hour at room temperature. […] The fluorescence intensity measured by flow cytometry using a Beckman Coulter EPICS XL. Cells were collected and data stored using the SYSTEM II software and analysed using the WinMDI2.8 software. DNA fragmentation was also detected by in situ analysis of nuclei following TUNEL using a confocal fluorescent microscope (Leica). […] For quantification, the Leica LCS software was used to acquire three random images per well for a total of 9 images per experimental sample using a fixed protocol (with constant PMT and section-depth setting). Data are expressed as mean number of apoptotic cells per well. […] Data are expressed as absorbance values at 492 nm after subtraction of values at […] given by the unmetabolised salt.

HOB cells [2] = test: Cell adhesion assay (cell attachment and cell spreading), HOB cells; assay type: cell-based, human
Procedure: To evaluate cell attachment and cell spreading exponentially growing cells were detached from substratum by trypsinisation (0.25% (v/v) trypsin in 5 mM EDTA), collected into medium containing a ˜7% (V/V) final concentration of FCS, washed twice with medium without serum and then plated (2×10^4cells/well) onto FN-coated 96-well plates with and without further immobilisation of tTG. After a maximum of 20-minute incubation (to minimise the effect of any endogenous secreted proteins) at 37° C. in a 5% CO2 atmosphere, cells were fixed in 3.7% (w/v) paraformaldehyde in PBS pH 7.4, permeabilised in 0.1% (v/v) Triton X-100 and stained with May Grunwald and Giemsa stain (Jones et al 1997, Verderio et al. 2000). In some cases cells were pre-treated for 15 hours with 1 mM cycloheximide before plating to rule out any effects of endogenous secreted adhesion molecules. Digital images of three non-overlapping fields covering the central portion of each well was captured using a video digital camera (Olympus DP10) and examined using the Image Analysis programme Scion Image (National Institute of Health, USA). A total of at least nine images of separate fields per sample were examined for a total of at least 900 cells in the FN control. The number of cell particles in each field was measured by thresholding and particle analysis setting a minimum particle size of 50 pixels. Spread cells were analysed and quantified by “density slicing” and particle analysis.
Adhesion of cells to FN was decreased by pre-incubation with RGD synthetic peptide (50 μg/ml, ˜75 ∝M, 100 μg/ml ˜150 μM, or 200 μg/ml ˜300 μM) or function blocking anti-integrin antibodies 40 μg/ml anti-β1 integrin (JB1A), 30 μg/ml anti-α5 integrin (P1D6). Detached cells (as described above) were pre-incubated in suspension (2×10^5cells/ml) in serum-free medium containing either RGD peptide or anti-integrins antibodies at 37° C. for 10 minutes in 5% CO2 atmosphere, and then seeded in the presence of the peptides.

[3] = system: tTG-null mouse dermal fibroblasts (MDF-TG−/−); test: Cell viability (XTT) assay; assay type: cell-based; conditions: RGD peptide ~15 hours
Procedure: as §1

HOB cells [4] = assay type: cell-based, human; conditions: FN+RGD
[5] = system: BRIN-BD11 (clonal β-cells); test: Cell attachment and spreading of BRIN-BD11 cells; assay type: cell-based, rat; conditions: excess RGD peptide
Procedure: A novel insulin-secreting cell line (BRIN-BD11), which was established after electrofusion of RINm5F cells with New England Deaconess Hospital rat pancreatic islet cells, was grown confluent in RPMI 1640 media, supplemented with 10% FCS, 200 u/ml Penicillin, 200 ug/ml Streptomycin and L-Glutamine at 2 mM. The wells of microtitre plates were coated with FN (5 μg/ml) overnight at 4° C. The assigned wells were washed once with 50 mM Tris-HCl, pH 7.4 and then incubated with 20 μg/ml tTG solution (dissolved in PBS containing 2 mM EDTA pH 7.4) for 1 hour at 37° C. Meanwhile, exponentially growing cells were trypsinised and collected into medium containing approximately 7% (v/v) foetal calf serum. After a five-minute centrifugation at 300×g the cell pellet was washed twice in serum free medium to remove the traces of serum proteins. […] The cell attachment and spreading were quantified using the Scion image analysis programme, which is developed at the National Institute of Health (Washington DC, USA). The number of cells per image was assessed through threshold and particle analysis settings with a minimum particle size of 50 pixels. […] These were quantified by density slicing and particle analysis settings. […]

FAK = FAK tyrosine phosphorylation (western blot, phospho(Tyr397)-FAK); assay type: cell-based, human; conditions: HOB; RGD peptide (100 μg/ml)
Procedure: A cell suspension of 2×10^5 cells/ml was seeded in 9.6 cm^2-wells (6×10^5 cells/well) pre-coated with FN, tTG-FN or heat-inactivated 3% BSA (w/v) in PBS pH 7.4. After 30-minute incubation at 37° C. in a 5% CO2 atmosphere, the supernatant medium was removed, and non-adhered cells collected by spinning at 270 g for 5 minutes and then lysed in reducing Laemmli sample buffer at 95° C. for 5 minutes. The layer of adhered cells was scraped and similarly lysed (200 μl/well). The lysates of adhered and non-adherent cells were pooled together, fractionated (¼ aliquot) on 8% SDS-PAGE and then western blotted. Blots were incubated with a polyclonal rabbit anti-human phospho(Tyr 397)-FAK (1/2000), for ˜15 hours at +4° C. followed by anti-rabbit IgG peroxidase-conjugate (1/2000) for 2 hours at 21° C. Bands were detected by chemi-luminescence (Amersham), following manufacturer instructions. For re-probing with a control antibody, blots were treated with stripping buffer [50 mM Tris.HCl pH 6.7, 100 mM βME, 2% SDS (w/v)] for 30 minutes at 50° C. and then incubated with a monoclonal anti-tubulin antibody (1/2000), followed by peroxidase-conjugate anti-mouse IgGs/(1/1000).

GRGDTP [RGD peptide, GRGDTP]
cell attachment on FN (Swiss 3T3 fibroblasts): 30-40 % of controls | cell spreading on FN (Swiss 3T3 fibroblasts): 30-40 % of controls | apoptotic cells among total fibroblasts grown on FN [1]: ~24% | cell spreading on FN (HOB cells [2]; 100 μg/ml RGD peptide): 10-50 % of control value | cell attachment on FN (HOB cells [2]; 50 and 100 μg/ml RGD peptides): 30-50 % of control values on FN | inhibition of cell attachment on the 70 kd fragment (HOB cells [2]; RGD peptide (100 μg/ml)): ~40% | inhibition of cell spreading on the 70 kd fragment (HOB cells [2]; RGD peptide (100 μg/ml)): ~40% | decrease of cell viability on FN versus control RAD peptide [3]: around 20% | actin stress fibre organisation on FN (HOB cells [4]): actin was not organised into stress fibres | cell attachment and spreading on FN [5]: decreased | tyrosine phosphorylation of FAK on FN (FAK): ~25 % of level in control cells on
